Here are results for ten molecules from patent US5811078A, “Spray formulations of antihyperalgesic opiates and method of treating topical hyperalgesic conditions therewith” (Adolor Corporation, priority 1997, dated 1998).

Series [1] is described as follows: Peripheral selectivity: ratio of ED50 in the tail-withdrawal assay over ED50 in the anti-diarrheal (castor oil) assay. The class given is in vivo, female Wistar rats. From the text:
The cut off time is 15 seconds. […] After each determination the tail is carefully dried.
Each animal is kept in an individual cage.

In a further series the test system is central nervous system. The note with it: reported prior use, antidiarrheal formulations, hydrochloride, cited from earlier work.

Structures can show the parent of a compound that is named as a salt. Where two headings read alike, the source gives them in different places.

Take `O=C(N1CCOCC1)C(CCN1CCC(O)(c2cccc(C(F)(F)F)c2)CC1)(c1ccccc1)c1ccccc1` [Compound 10]: the “Peripheral Selectivity (ED50tw/ED50 Castor Oil)” value (shortened to “Peripheral Selectivity”) in series [1] (po) is reported as > 251. Still for that read-out and setting: to `CN(C)C(=O)C(CCN1CCC(O)(c2ccc(Cl)cc2)CC1)(c1ccccc1)c1ccccc1` [Compound 6, 4-(p-Chlorophenyl)-4-hydroxy-N,N-dimethyl-αα-diphenyl-1-piperidinebutyramide] belongs 533; to `O=C(N1CCCC1)C(CCN1CCC(O)(c2ccccc2)CC1)(c1ccccc1)c1ccccc1` [Compound 9, 1-[4-(4-Hydroxy-4phenyl-1piperidino)-2,2-diphenylbutyryl]pyrrolidine], 437; to `CCN(C)C(=O)C(CCN1CCC(O)(c2ccc(Cl)cc2)CC1)(c1ccccc1)c1ccccc1` [Compound 2, 4-(p-Chlorophenyl)-4-hydroxy-N-ethyl-N-methyl-ααdiphenyl-1-piperidinebutyramide], ≥ 1,231.

For `CN(C)C(=O)C(CCN1CCC(O)(c2ccc(Cl)c(C(F)(F)F)c2)CC1)(c1ccccc1)c1ccccc1` [Compound 8, 4-(4-Chloro3-trifluoromethyl-phenyl)-4-hydroxy-N,N-dimethyl-αα-diphenyl-1-piperidinebutyramide], the “Peripheral Selectivity” value in series [1] (po) is 467. `CN(C)C(=O)C(CCN1CCC(O)(c2ccc(Cl)cc2)CC1)(c1ccccc1)c1ccccc1` [loperamide, 4-(p-chlorophenyl)-4-hydroxy-N-N-dimethyl-αα-diphenyl-1-piperidinebutyramide hydrochloride]: the CNS effects entry with central nervous system was “devoid of CNS effects”; in the series on central nervous system (listed as Loperamide HCl), “completely free of the undesirable CNS effects”.

For `O=C(N1CCCC1)C(CCN1CCC(O)(c2ccc(Cl)cc2)CC1)(c1ccccc1)c1ccccc1` [Compound 5, 1-{4-[(4-Chlorophenyl)4-hydroxy-1-piperidino]-2,2-diphenylbutyryl}pyrrolidine], the “Peripheral Selectivity” value in series [1] (po) was 593. For the molecule `O=C(N1CCCC1)C(CCN1CCC(O)(c2ccc(Cl)c(Cl)c2)CC1)(c1ccccc1)c1ccccc1` [Compound 4], the “Peripheral Selectivity” value in series [1] (oral, rats, tail withdrawal ED50 over castor oil test ED50 (both mg/kg)) is > 640. For the molecule `CN(C)C(=O)C(CCN1CCC(O)(c2ccc(F)cc2)CC1)(c1ccccc1)c1ccccc1` [Compound 7, 4-(p-Fluorophenyl)-4-hydroxy-N,N-dimethyl-αα-diphenyl-1-piperidinebutyramide], the “Peripheral Selectivity” value in series [1] (po) amounted to 500. Same read-out and setting: for `CN(C)C(=O)C(CCN1CCC(O)(c2ccc(Br)cc2)CC1)(c1ccccc1)c1ccccc1` [Compound 3, 4-(p-Bromophenyl)-4-hydroxy-N,N-dimethyl-αα-diphenyl-1-piperidinebutyramide] the value was 800.
